pIC50: −log10 of the molar value. Like-named read-outs stand apart in the source and are kept apart here. Where a SMILES comes first, the peptide text is derived from it. [ ]: non-standard residue; d: D form. The star is where a group is joined. Dolaproine = CO[C@@H]([C@@H]1CCCN1)[C@@H](C)C(=O)O; X1 = COC(=O)[C@]1(O)CC/C=C/[C@H](OC(=O)*)CC1; Dil = CC[C@H](C)[C@H](NC)[C@@H](CC(=O)O)OC; X2 = C[C@@H](N*)[C@@H](O)c1ccccc1; NMeV = CN[C@H](C(=O)O)C(C)C
Legend:
[1] = Second order rate constant, TCO derivatives with tetrazine 2.18, pseudo-first order, UV spectroscopy in MeCN; details: reaction with 2.18 in MeCN at 20° C.; estimated from k1′
Protocol: Second order rate constant for the reaction between TCO derivatives and tetrazine 2.18 was determined under pseudo-first order conditions in MeCN at 20° C. by UV spectroscopy. A cuvette was filled with MeCN (3 mL) and equilibrated at 20° C. A solution of 2.18 (20 μL, 25 mM in DMSO) was added, followed by a solution of the TCO (5 μL 25 mM in DMSO). The absorption at 540 nm was monitored. The pseudo-first order reaction constant k1′ was calculated from the half-life of the decrease of this absorption, and the second order rate constant k2 was estimated from k1′ and the initial concentration of tetrazine: k2=k1′/c.

[2] = Release of constructs (C^A) from TCO triggers with tetrazines, HPLC-MS/PDA; details: for Time point and release %: MeCN/PBS
Protocol: In another experiment, the release of TCO triggers was evaluated with a range of tetrazines. The constructs to be released included the drug doxorubicin, and methylamine as a model C^A. TCO-C^A conjugates (10 μL, 25 mM in DMSO) were diluted with MeCN ([…]) and PBS ([…]). Next, a solution of the tetrazine activator (20 μL 25 mM in DMSO) was added, and the release was evaluated by HPLC-MS/PDA. The results in Table 6 show complete C^A release in 5 min from all TCO triggers with all tested activators. Importantly, no release was observed from 1.42 and 1.62 upon reaction with 2.18, which supports Formula (19), wherein an amine being Y^T1, Y^T2 or Y^T3 cannot be bound to a carbonyl.

[3] = cited from earlier work
[4] = Release kinetics of 7-amino-4-methylcoumarin (AMC) in various media, fluorescence; details: 5 μM 1.14, 7 μM activator 2.18
Protocol: 1.14 was reacted in PBS, DMEM buffer, full cell growth medium (DMEM+10% FBS) or human plasma at a concentration of 5 μM with activator 2.18 (7 μM) in a quartz cuvette while magnetic stirring. The increase of fluorescence due to the release of 7-amino-4-methylcoumarin (AMC) was monitored using a Perkin Elmer LS55 fluorescence spectrometer. […] In contrast, with TCO triggers not of this invention, 2.18 gives low and slow release [Versteegen et al., Angew. Chem. Int. Ed. 2013, 52, 14112-14116, Sarris et al., Chem Eur J 2018, 24, 18075-18081].

[5] = tested on: HT-1080 cells (human fibrosarcoma); test: Cell viability, MTT assay; format: cell-based; details: then 94 h, n=3
Protocol: HT-1080 cells (human fibrosarcoma) were added with serial dilutions of the TCO-MMAE prodrug 1.16 (100 μM-0.32 nM) in growth medium and 10 μL of a stock solution of activator 2.18 (50 μM in PBS) in a 96-well plate (n=3). After a 2 h incubation at 37° C., the medium was refreshed and the cells were incubated for 94 more hours.

[6] = Second order rate constants, TCO with tetrazine activators, stopped-flow spectrophotometry in PBS; details: PBS at 37° C., 25 μM tetrazine, 50 μM TCO
Protocol: Second order rate constants for the reaction of tetrazines activators with 1.13 and 1.71 were determined using a SX20 stopped-flow spectrophotometer from Applied Photophysics. Measurements were performed at 37° C. with 25 μM tetrazine and 50 μM TCO in PBS, in triplicates, monitored at 535 nm. Data was analyzed using GraphPad Prism. Second order rate constants were determined from nonlinear fitting of the absorbance vs. time curves to the second order rate equation. […] Importantly, 2.17 and 2.18 are very reactive, but afford low release yields with TCO triggers that are not part of this invention (i.e. 1.71) [Versteegen et al., Angew. Chem. Int. Ed. 2013, 52, 14112-14116].

[7] = Dye (AF594) release efficiency from TCO-C^A conjugates with tetrazine activators, HPLC endpoint; details: 25 μM TCO, 50 μM tetrazine, PBS 37° C., 48 h, n = 2, ±1%
Protocol: 1.15 and 1.72 (as control without an Y^T1 group) were reacted at a concentration of 25 μM with various tetrazine activators (50 μM) in PBS (DMSO content <1%) at 37° C. Samples were analyzed by HPLC (UV and fluorescence detection; 10-100% MeCN in water with 2.5 mM NH4OAc, pH 8.4) after 48 h to obtain endpoint data for the overall dye release efficiency (Table 5). […] Importantly, highly reactive tetrazines that normally give low release yields, now give quantitative release. Compare with [Versteegen et al., Angew. Chem. Int. Ed. 2013, 52, 14112-14116, Sarris et al., Chem Eur J 2018, 24, 18075-18081].

[8] = 5 min, tetrazine 2.18, released payload dimethylamine
[9] = 10 min, tetrazine 2.20, released payload doxorubicin

## CN(C)C(=O)O[C@@H]1/C=C/CCN(C(=O)OCC[Si](C)(C)C)CC1 (racemic) [Compound 1.62, 2-(Trimethylsilyl)ethyl (S,E)-4-((dimethylcarbamoyl)oxy)-3,4,7,8-tetrahydroazocine-1(2H)-carboxylate]
[1]
  k2: 80 M⁻¹ s⁻¹
[2]
  release upon reaction with 2.18: no release

## CN(C)C(=O)O[C@@H]1/C=C/CCNCC1 (racemic) [Compound 1.63, (S,E)-1,2,3,4,7,8-Hexahydroazocin-4-yl dimethylcarbamate]
[2]; [8]
  Time point and release %: 5 min: 100%

## CNC(=O)C[C@@H]1CC[C@H](OC(=O)N(C)C)/C=C/C[C@H]1O (relative stereo) [Compound 1.70, (rel-1S,5R,6S,E)-5-Hydroxy-6-(2-(methylamino)-2-oxoethyl)cyclooct-2-en-1-yl dimethylcarbamate]
[2]; [8]
  Time point and release %: 5 min: 100%

## CN(C)C(=O)OC[C@H]1CC[C@H](OC(=O)N(C)C)/C=C/C[C@H]1N (stereo in doubt) [Compound 1.54, (1S,5R,6S,E)-5-Amino-6-(((dimethylcarbamoyl)oxy)methyl)cyclooct-2-en-1-yl dimethylcarbamate]
[1]
  k2: 38 M⁻¹ s⁻¹
[2]; [8]
  Time point and release %: 5 min: 50%

## c1ccc(-c2nnc(-c3ccccn3)nn2)nc1 [3,6-bis-(2-pyridyl)-1,2,4,5-tetrazine]
[3]; PBS/MeCN (3:1)
  click release yield: 7%
[3]; serum
  click release yield: 12%

## Cc1nnc(C)nn1 [3,6-bis-methyl-1,2,4,5-tetrazine]
[3]; release typically takes several hours
  maximum release yield: 80-90%

## COC(=O)[C@]1(O)CC/C=C/[C@H](OC(=O)Nc2ccc3c(C)cc(=O)oc3c2)CC1 [Compound 1.14, Methyl(1S,4E,6R)-1-hydroxy-6-{[(4-methyl-2-oxo-2H-chromen-7-yl)carbamoyl]oxy}cyclooct-4-ene-1-carboxylate]
[4]; PBS and medium (neat or containing FBS)
  time to reach 100% AMC release: 1 to 3 min
[4]; human plasma
  time to complete AMC release: approximately 20 min

## CC[C@H](C)[C@@H]([C@@H](CC(=O)N1CCC[C@H]1[C@H](OC)[C@@H](C)C(=O)N[C@H](C)[C@@H](O)c1ccccc1)OC)N(C)C(=O)[C@@H](NC(=O)[C@H](C(C)C)N(C)C(=O)O[C@H]1/C=C/CC[C@@](O)(C(=O)OC)CC1)C(C)C [Compound 1.16, TCO-MMAE] (X1-[NMeV]V[Dil][Dolaproine]-X2)
[5]; HT-1080, 1.16 alone (no activator), 2 h incubation
  pIC50: 5.89
[5]; HT-1080, in the presence of activator 2.18, 2 h incubation
  pIC50: 9.52

## COC(=O)[C@]1(O)CC/C=C/[C@H](OC(=O)N(C)c2ccc([C@@H](O)C(=O)O)cc2)CC1 [Compound 1.19, 2-Hydroxy-2-{4-[({[(1R,2E,6S)-6-hydroxy-6-(methoxycarbonyl)cyclooct-2-en-1-yl]oxy}carbonyl)(methyl)amino]phenyl}acetic acid]
[1]
  k2: 134 M⁻¹ s⁻¹
[2]; 5 min, tetrazines 2.1, 2.3, 2.18 (for all tested activators), released payload 2-hydroxy-2-[4-(methylamino)phenyl]acetic acid
  Time point and release %: 5 min: 100%

## COC(=O)[C@H]1CC[C@@H](O)/C=C/C[C@@H]1NC(=O)OCC[Si](C)(C)C [Compound 1.40, Methyl (1S,2S,4E,6R)-6-hydroxy-2-({[2-(trimethylsilyl)ethoxy]carbonyl}amino)cyclooct-4-ene-1-carboxylate]
[1]
  k2: 39 M⁻¹ s⁻¹

## COC(=O)[C@H]1CC[C@@H](OC(=O)N(C)C)/C=C/C[C@@H]1NC(=O)OCC[Si](C)(C)C [Compound 1.42, Methyl (1S,2S,4E,6R)-6-((dimethylcarbamoyl)oxy)-2-(((2-(trimethylsilyl)ethoxy)carbonyl)amino)cyclooct-4-ene-1-carboxylate]
[2]; tetrazine 2.18, amine bound to a carbonyl (protected)
  release upon reaction with 2.18: no release

## COC(=O)[C@H]1CC[C@@H](OC(=O)N(C)C)/C=C/C[C@@H]1N [Compound 1.43, Methyl (1S,2S,4E,6R)-2-amino-6-((dimethylcarbamoyl)oxy)cyclooct-4-ene-1-carboxylate]
[1]
  k2: 27 M⁻¹ s⁻¹
[2]; 5 min, tetrazines 2.1, 2.3, 2.15, 2.17, 2.18 (for all tested activators), released payload dimethylamine
  Time point and release %: 5 min: 100%

## COC(=O)[C@H]1CC[C@@H](OC(=O)N[C@H]2C[C@@H](OC3C[C@](O)(C(=O)CO)Cc4c(O)c5c(c(O)c43)C(=O)c3c(OC)cccc3C5=O)O[C@@H](C)[C@H]2O)/C=C/C[C@@H]1N (some centres unmarked) [Compound 1.45, TCO-doxorubicin]
[2]; [9]
  Time point and release %: 10 min: 100%

## C[Si](C)(C)CCOC(=O)N[C@H]1C/C=C/[C@H](O)CC[C@H]1CO [Compound 1.51, 2-(trimethylsilyl)ethyl N-[(1S,3E,5R,8R)-5-hydroxy-8-(hydroxymethyl)cyclooct-3-en-1-yl]carbamate]
[1]
  k2: 104 M⁻¹ s⁻¹

## C[Si](C)(C)CCOC(=O)N1CC/C=C/C(O)CC1 (centres unmarked) [Compound 1.60, 2-(Trimethylsilyl)ethyl (E)-4-hydroxy-3,4,7,8-tetrahydroazocine-1(2H)-carboxylate]
[1]
  k2: 277 M⁻¹ s⁻¹

## COc1cccc2c1C(=O)c1c(O)c3c(c(O)c1C2=O)C[C@@](O)(C(=O)CO)C[C@@H]3O[C@@H]1C[C@H](NC(=O)O[C@@H]2/C=C/CCNCC2)[C@H](O)[C@H](C)O1 [Compound 1.65, TCO-doxorubicin]
[2]; [9]
  Time point and release %: 10 min: 100%

## O=C(NCCOCCOCCOCCO)O[C@H]1/C=C/CCCCC1 [Compound 1.71, reference compound]
[6]; activator 2.12
  k2: 280 ± 30 M⁻¹ s⁻¹
[6]; activator 2.17
  k2: 10300 ± 1200 M⁻¹ s⁻¹
[6]; activator 2.18
  k2: 9300 ± 500 M⁻¹ s⁻¹
[6]; activator 2.9
  k2: 80 ± 10 M⁻¹ s⁻¹

## TCO-PEG2-AF594 [Compound 1.15]
[7]; activator 2.10
  Release (%) of fluorescent dye (AF594): 99%
[7]; activator 2.11
  Release (%) of fluorescent dye (AF594): 99%
[7]; activator 2.12
  Release (%) of fluorescent dye (AF594): 92%
[7]; activator 2.13
  Release (%) of fluorescent dye (AF594): 99%
[7]; activator 2.14
  Release (%) of fluorescent dye (AF594): 99%
[7]; activator 2.16
  Release (%) of fluorescent dye (AF594): 92%
[7]; activator 2.17
  Release (%) of fluorescent dye (AF594): 96%
[7]; activator 2.18
  Release (%) of fluorescent dye (AF594): 99%
[7]; activator 2.19
  Release (%) of fluorescent dye (AF594): 99%
[7]; activator 2.6
  Release (%) of fluorescent dye (AF594): 93%
[7]; activator 2.9
  Release (%) of fluorescent dye (AF594): 98%

Source: patent publication US12653914B2, “Compounds for fast and efficient click release” (priority 2019, dated 2026)
